The nature of assay [1]: Antiinflammatory activity in human neutrophils assessed as inhibition of fMLP/CB-induced superoxide anion generation after 5 mins. Type of assay: functional, cell-based. As to conditions: Neutrophil.
The nature of assay [2]: Antiinflammatory activity in human neutrophils assessed as inhibition of fMLP/CB-induced elastase release after 5 mins. It is filed as functional, cell-based. As to conditions: Neutrophil.
For assay [3], the system named is Neutrophil. As to the kind of experiment: Ratio of Genistein IC50 to compound IC50 for inhibition of fMLP/CB-induced superoxide anion generation in human neutrophils. Type of assay: functional.
For assay [4], the system named is Neutrophil. The experiment in a line: Ratio of Genistein IC50 to compound IC50 for inhibition of fMLP/CB-induced elastase release in human neutrophils. Type of assay: functional.

Converted amounts (≈) assume the structure as drawn.

For the compound `O=c1c(-c2ccc(O)cc2)coc2cc(O)cc(O)c12` [GENISTEIN], the values for the IC50 in assay [1] and in assay [2] were 0.54 µg/mL (≈ 2 µM) and 6.99 µg/mL (≈ 25.9 µM), respectively.
Take `O=C1Nc2cc3ccc(O)cc3c3c4c(cc1c23)OCO4`: the figures for the IC50 in assay [1] and in assay [2] were 0.12 µg/mL (≈ 0.43 µM) and 0.2 µg/mL (≈ 0.716 µM), respectively. Also, the “Ratio IC50” value in the assay on Neutrophil [3] is 4.5; in the assay on Neutrophil [4] it was 35.
For the compound `COC(=O)c1cc2c(c3c1ccc1c(OC)cccc13)OCO2` [METHYL ARISTOLATE], the IC50 in assay [1] and in assay [2] was above 10 µg/mL in each case.
Turning to `NC(=O)c1cc2c(c3c1ccc1ccccc13)OCO2` [ARISTOLAMIDE II], the IC50 is above 10 µg/mL in assay [1] and 4.11 µg/mL (≈ 15.5 µM) in assay [2].
For `COc1cccc2c1cc([N+](=O)[O-])c1c(C(=O)O)cc3c(c12)OCO3` [ARISTOLOCHIC ACID], in that order: above 10 µg/mL and above 10 µg/mL.
For `O=C(O)c1cc2c(c3c1c([N+](=O)[O-])cc1ccc(O)cc13)OCO2` [ARISTOLOCHIC ACID C], in that order: above 10 µg/mL and above 10 µg/mL.
Take `COC(=O)c1cc2c(c3c1c([N+](=O)[O-])cc1c(OC)cccc13)OCO2`: the IC50 in assay [1] and in assay [2] was above 10 µg/mL in each case.
For the compound `COC(=O)c1cc2c(c3c1ccc1c(OC)cc(OC)cc13)OCO2` [ARISTOLIC ACID METHYL ESTER], the IC50 in assay [1] and in assay [2] was above 10 µg/mL throughout.
Consider `COc1cccc2c1ccc1c(C(N)=O)cc3c(c12)OCO3` [ARISTOLAMIDE], for which the IC50 in assay [1] and in assay [2] was above 10 µg/mL throughout.
With `COc1cc(O)cc2c1cc([N+](=O)[O-])c1c(C(=O)O)cc3c(c12)OCO3` [ARISTOLOCHIC D], the results for the IC50 in assay [1] and in assay [2] were 5.78 µg/mL (≈ 16.2 µM) and 8.49 µg/mL (≈ 23.8 µM), respectively.

What is called IC50 is the concentration that gives 50% inhibition.

Values taken from ChEMBL document CHEMBL1681782, “A novel alkaloid, aristopyridinone A and anti-inflammatory phenanthrenes isolated from Aristolochia manshuriensis” (Bioorg Med Chem Lett, 2011).
